The values that follow come from ChEMBL document CHEMBL1201862, “PubChem BioAssay data set” (2004).

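Method: 48-hour compound exposure of cells in 96-well plates, five concentrations, linear interpolation of endpoints. GI50: concentration for 50% inhibition of growth.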 Active and inactive are the calls of the source. No stated cut-off is given here; in the data, active = GI50 up to about 1.1 µM and inactive = higher.

Test systems include ACHN; IGROV-1; OVCAR-5; K562; UACC-62; CAKI-1; HOP-62; HCC 2998; U-251; COLO 205; M14; DLD-1; SF-539; NCI-H460; Malme-3M; RXF 393.
Assay in all cases: inhibition of tumour cell growth, NCI panel, 48 h

As for `N=C(N)NNC(=O)CCCCCCCC(=O)NNC(=N)N`, the GI50 in the test with ACHN, in the test on IGROV-1, in the test on OVCAR-5, in the test with K562, in the test with UACC-62 and in the test on CAKI-1 was > 100 µM (inactive) in each case. In addition, the GI50 in the test on HOP-62 is > 100 µM (inactive); with HCC 2998, > 100 µM (inactive); in the test with U-251 it was > 100 µM (inactive); in the test with COLO 205, 18.3 µM (inactive); in the test on M14, > 100 µM (inactive); in the test with DLD-1 it was > 100 µM (inactive). The GI50 with SF-539, with NCI-H460, in the test on Malme-3M and with RXF 393 was > 100 µM (inactive) throughout.
Regarding `c1ccc2c(c1)CCc1c(-c3n[nH]c4c3CCc3ccccc3-4)n[nH]c1-2`, the GI50 in the test with ACHN is > 100 µM (inactive); in the test with IGROV-1, > 100 µM (inactive); with OVCAR-5, > 100 µM (inactive); in the test on K562, 27.9 µM (inactive); with UACC-62 it was > 100 µM (inactive); with CAKI-1, > 100 µM (inactive). Moreover, the GI50 in the test with HOP-62, in the test with HCC 2998, in the test with U-251, in the test with COLO 205, with M14 and in the test on DLD-1 was > 100 µM (inactive) throughout. The GI50 in the test with SF-539, with NCI-H460 and in the test on Malme-3M was > 100 µM (inactive) throughout.
For the molecule `CCCCCCCCCCCC(=O)c1c(O)cccc1O`, the GI50 is 19.5 µM (inactive) with ACHN; 18.1 µM (inactive) in the test with IGROV-1; 15.2 µM (inactive) with OVCAR-5; 31.9 µM (inactive) with K562; 19.6 µM (inactive) in the test on UACC-62; 23.4 µM (inactive) with CAKI-1. Besides, the GI50 in the test on HOP-62 is 17.6 µM (inactive); in the test on HCC 2998, 19.7 µM (inactive); with U-251 it was 19.3 µM (inactive); with COLO 205, 15.3 µM (inactive); in the test with M14, 18.6 µM (inactive); with DLD-1, 17.8 µM (inactive). For the same molecule, the GI50 in the test on SF-539 was 18 µM (inactive); in the test on NCI-H460 it was 21.7 µM (inactive); with Malme-3M it was 14.6 µM (inactive); in the test on RXF 393, 24.4 µM (inactive).
Consider `CCOC(=O)C1=C(Nc2cccc3ccccc23)OCC1=O`, for which the GI50 in the test with ACHN, in the test on IGROV-1, in the test on OVCAR-5, in the test with K562, in the test with UACC-62 and in the test on CAKI-1 was > 100 µM (inactive) in each case. The GI50 in the test with HOP-62, in the test with HCC 2998, in the test on U-251, in the test on COLO 205, in the test with M14 and with DLD-1 was > 100 µM (inactive) throughout. Further, the GI50 in the test on SF-539, with NCI-H460 and in the test with Malme-3M was > 100 µM (inactive) each time.
As for `CN(C)CCNC(=O)c1cccc2ccc(-c3ccncc3)nc12`, the GI50 in the test with ACHN was 1.17 µM (inactive); in the test on IGROV-1, 1.47 µM (inactive); with OVCAR-5 it was 1.93 µM (inactive); in the test with K562, 2.58 µM (inactive); in the test with UACC-62 it was 1.8 µM (inactive); with CAKI-1, 1.52 µM (inactive). For the same molecule, the GI50 with HOP-62 is 1.66 µM (inactive); with HCC 2998, 1.96 µM (inactive); in the test with U-251 it was 1.63 µM (inactive); in the test with COLO 205, 1.3 µM (inactive); in the test with M14 it was 4.11 µM (inactive); with DLD-1 it was 2.48 µM (inactive). Besides, the GI50 with SF-539 is 1.45 µM (inactive); with NCI-H460, 0.403 µM (active); in the test with RXF 393 it was 2.36 µM (inactive).
With `O=C1C=CC(=O)c2nc3c(cc21)CCC3`, the GI50 is 18.8 µM (inactive) in the test on ACHN; 17.8 µM (inactive) in the test with IGROV-1; > 100 µM (inactive) in the test with OVCAR-5; 16.9 µM (inactive) in the test with K562; 18.6 µM (inactive) with UACC-62; 17 µM (inactive) in the test with CAKI-1. Moreover, the GI50 is > 100 µM (inactive) in the test with HOP-62; > 100 µM (inactive) with HCC 2998; 78.5 µM (inactive) with U-251; 14.5 µM (inactive) with COLO 205; 16.6 µM (inactive) with M14; 18.7 µM (inactive) in the test on DLD-1. For the same molecule, the GI50 with SF-539 was > 10 µM (inactive); with NCI-H460 it was 32.7 µM (inactive); in the test on Malme-3M it was 17.5 µM (inactive); with RXF 393, 19.7 µM (inactive).
As to `COc1ccc2c(c1)CC1NC2Cc2ccccc21` (centres undefined), the GI50 in the test on ACHN, in the test on IGROV-1, in the test on OVCAR-5, in the test on K562, with UACC-62 and in the test on CAKI-1 was > 100 µM (inactive) each time. For the same molecule, the GI50 with HOP-62, with HCC 2998, in the test with U-251, with COLO 205, in the test with M14 and in the test on DLD-1 was > 100 µM (inactive) throughout. Moreover, the GI50 in the test on SF-539, with NCI-H460 and in the test on Malme-3M was > 100 µM (inactive) throughout.
For `CCC1c2cc3n(c(=O)c2COC1O)Cc1c-3nc2ccccc2c1Cl` (centres undefined), the GI50 in the test with ACHN is 19.3 µM (inactive); in the test on IGROV-1, > 75.3 µM (inactive); in the test with OVCAR-5, > 100 µM (inactive); in the test with K562, 32.2 µM (inactive); in the test on UACC-62, 6.95 µM (inactive); in the test with CAKI-1, 23 µM (inactive). The GI50 was 14.8 µM (inactive) with HOP-62; 44.7 µM (inactive) in the test with HCC 2998; 9.86 µM (inactive) in the test with U-251; > 89.5 µM (inactive) in the test on COLO 205; 25 µM (inactive) in the test on M14; 99.1 µM (inactive) with DLD-1. The GI50 was 22.2 µM (inactive) in the test with SF-539, 3.89 µM (inactive) with NCI-H460, > 100 µM (inactive) with Malme-3M and 73.8 µM (inactive) with RXF 393.
As for `N=C(N)N/N=C/c1c[nH]c2ccccc12`, the GI50 with ACHN, in the test on IGROV-1, in the test with OVCAR-5, in the test on K562, in the test with UACC-62 and in the test with CAKI-1 was > 100 µM (inactive) throughout. Besides, the GI50 in the test on HOP-62, with HCC 2998, in the test on U-251, in the test on COLO 205, with M14 and with DLD-1 was > 100 µM (inactive) in each case. Moreover, the GI50 with SF-539, in the test on NCI-H460, with Malme-3M and in the test with RXF 393 was > 100 µM (inactive) in each case.
Consider `[O-][S+]1Nc2c(Cl)cc(Cl)c3c(Cl)cc(Cl)c(c23)N1`, for which the GI50 is 27.7 µM (inactive) in the test with ACHN; 58.5 µM (inactive) in the test on IGROV-1; 27.8 µM (inactive) in the test on OVCAR-5; 41.5 µM (inactive) in the test on K562; 22.3 µM (inactive) in the test on UACC-62; 32.4 µM (inactive) in the test with CAKI-1. For the same molecule, the GI50 is 28.4 µM (inactive) in the test with HCC 2998; 28.2 µM (inactive) in the test with U-251; > 100 µM (inactive) in the test with COLO 205; 31.8 µM (inactive) in the test on M14; 28.6 µM (inactive) in the test on DLD-1; 36.7 µM (inactive) in the test with SF-539. Moreover, the GI50 in the test with Malme-3M was 43.8 µM (inactive); with RXF 393, 21.9 µM (inactive).
`Nc1ccc(C(=O)NN2C(=O)C(Cl)C2c2ccc([N+](=O)[O-])cc2)cc1` (centres undefined): the GI50 in the test on ACHN is 12.3 µM (inactive); in the test with IGROV-1, 5.31 µM (inactive); in the test on OVCAR-5, 17.6 µM (inactive); with K562, 9.75 µM (inactive); with UACC-62, 8.59 µM (inactive); in the test with CAKI-1 it was 20 µM (inactive). In addition, the GI50 in the test with HOP-62 is 11 µM (inactive); in the test on HCC 2998, 9.08 µM (inactive); in the test on U-251, 2.13 µM (inactive); with COLO 205, 14.8 µM (inactive); in the test with M14 it was 12.9 µM (inactive); with DLD-1 it was 9.79 µM (inactive). The GI50 in the test on SF-539 was 11.6 µM (inactive); in the test on NCI-H460, 6.21 µM (inactive); with Malme-3M, 12.1 µM (inactive).
On to `CCOC(=O)C1=C(C)NC(=O)NC1c1ccc(OC)cc1OC` (centres undefined), for which the GI50 in the test with ACHN, in the test on IGROV-1, in the test with OVCAR-5, in the test with K562, with UACC-62 and with CAKI-1 was > 100 µM (inactive) each time. Besides, the GI50 in the test with HOP-62 is > 100 µM (inactive); in the test on HCC 2998, > 100 µM (inactive); in the test on U-251, 52.6 µM (inactive); in the test with COLO 205 it was > 100 µM (inactive); with M14, > 100 µM (inactive); in the test on DLD-1, > 100 µM (inactive). Also, the GI50 is > 100 µM (inactive) in the test on NCI-H460, > 100 µM (inactive) in the test with Malme-3M and 72.6 µM (inactive) with RXF 393.
Turning to `COc1cccc(C(=O)O)c1Cc1cccc2ccccc12`, the GI50 with ACHN, with IGROV-1, with OVCAR-5, in the test with K562, in the test on UACC-62 and in the test with CAKI-1 was > 100 µM (inactive) in each case. Moreover, the GI50 in the test on HOP-62, with HCC 2998, with U-251, in the test with COLO 205, in the test on M14 and in the test with DLD-1 was > 100 µM (inactive) throughout. Besides, the GI50 in the test on NCI-H460, in the test on Malme-3M and in the test on RXF 393 was > 100 µM (inactive) each time.
